Our source for the AC50, IC50 and EC50 values is ChEMBL document CHEMBL1201862, “PubChem BioAssay data set” (2004).

A short description of test [1]: bead-based luminescence quenchers, dual-tagged ARNT – biochemical, AlphaScreen, cherry-pick, artefact control for ARNT-TACC3 interaction inhibitor project, dose response (AID 651705).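 Further: AlphaScreen bead proximity signal that flags compounds interfering with the detection technology; potency reflects signal decrease which marks the compound as an assay artifact.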 Type of test: functional.
For a further test, the target named is Protein Wnt-3a (Mus musculus, UniProt P27467). Briefly: antagonism of Wnt3a pathway luciferase reporter – Wnt-LIGHT cells, luminescence, selectivity assay for Gli-SUFU antagonist project, dose response (AID 651570).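 Further: Wnt-LIGHT reporter cells stimulated with conditioned medium from Wnt3a-producing cells.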 As to conditions: read-out: IC50_Mean. Type of test: functional. On the technique in general: Reporter assays use an easily measured gene product as a stand-in for the process of interest.

In test [2] the target is T1, Apoptotic protease-activating factor 1 (Homo sapiens, UniProt O14727).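 Further: caspase-3 cleavage of fluorogenic Rh110 DEVD substrate downstream of apoptosome activation.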
T1 sequence (O14727 whole entry): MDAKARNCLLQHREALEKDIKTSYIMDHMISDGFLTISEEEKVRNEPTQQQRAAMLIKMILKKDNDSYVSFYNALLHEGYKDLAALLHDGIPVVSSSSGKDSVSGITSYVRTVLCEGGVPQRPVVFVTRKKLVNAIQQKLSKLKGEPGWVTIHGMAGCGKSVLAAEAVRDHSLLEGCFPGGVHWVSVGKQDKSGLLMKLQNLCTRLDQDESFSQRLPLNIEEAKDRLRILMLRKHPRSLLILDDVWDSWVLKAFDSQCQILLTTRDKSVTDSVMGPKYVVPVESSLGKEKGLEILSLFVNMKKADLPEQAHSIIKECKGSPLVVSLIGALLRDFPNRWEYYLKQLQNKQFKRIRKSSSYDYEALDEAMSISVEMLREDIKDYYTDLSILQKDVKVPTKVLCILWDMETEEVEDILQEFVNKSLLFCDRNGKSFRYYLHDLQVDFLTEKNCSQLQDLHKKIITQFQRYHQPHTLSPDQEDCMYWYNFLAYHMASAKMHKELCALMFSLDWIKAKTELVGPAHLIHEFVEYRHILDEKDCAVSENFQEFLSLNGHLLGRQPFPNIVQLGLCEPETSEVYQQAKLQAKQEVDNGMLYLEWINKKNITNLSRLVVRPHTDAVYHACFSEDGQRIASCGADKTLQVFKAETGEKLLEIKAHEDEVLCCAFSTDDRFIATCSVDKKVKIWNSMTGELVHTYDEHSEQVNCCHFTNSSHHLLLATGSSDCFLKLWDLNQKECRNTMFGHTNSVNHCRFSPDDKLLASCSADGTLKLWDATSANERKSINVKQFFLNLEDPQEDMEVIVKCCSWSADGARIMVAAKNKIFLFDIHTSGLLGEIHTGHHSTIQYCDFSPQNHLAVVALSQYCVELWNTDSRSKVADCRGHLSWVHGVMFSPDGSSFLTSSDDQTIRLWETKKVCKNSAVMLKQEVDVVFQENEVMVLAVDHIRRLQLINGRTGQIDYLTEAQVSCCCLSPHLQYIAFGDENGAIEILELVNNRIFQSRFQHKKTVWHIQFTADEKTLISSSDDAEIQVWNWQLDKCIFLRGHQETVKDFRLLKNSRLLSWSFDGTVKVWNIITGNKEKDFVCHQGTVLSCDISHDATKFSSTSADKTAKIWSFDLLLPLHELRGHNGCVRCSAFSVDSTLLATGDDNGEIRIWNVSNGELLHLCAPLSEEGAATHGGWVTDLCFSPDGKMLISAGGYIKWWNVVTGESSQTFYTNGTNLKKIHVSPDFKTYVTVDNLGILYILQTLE
Briefly: SAR analysis of small molecule Activators of Apaf-1 in a Fluorescent assay. Type of test: functional. As to conditions: read-out: EC50_Mean.

The target of test [3] is DNA repair and recombination protein RAD54-like (Homo sapiens, UniProt Q92698). Briefly: RAD54 Holliday junction migration blockers – biochemical, fluorescence, cherry-picked samples, dose series, confirmation (AID 651657). Type of test: functional.
Test [4] has as its target T2, DNA repair protein RAD52 homolog (Homo sapiens, UniProt P43351).
T2 sequence (P43351 whole entry): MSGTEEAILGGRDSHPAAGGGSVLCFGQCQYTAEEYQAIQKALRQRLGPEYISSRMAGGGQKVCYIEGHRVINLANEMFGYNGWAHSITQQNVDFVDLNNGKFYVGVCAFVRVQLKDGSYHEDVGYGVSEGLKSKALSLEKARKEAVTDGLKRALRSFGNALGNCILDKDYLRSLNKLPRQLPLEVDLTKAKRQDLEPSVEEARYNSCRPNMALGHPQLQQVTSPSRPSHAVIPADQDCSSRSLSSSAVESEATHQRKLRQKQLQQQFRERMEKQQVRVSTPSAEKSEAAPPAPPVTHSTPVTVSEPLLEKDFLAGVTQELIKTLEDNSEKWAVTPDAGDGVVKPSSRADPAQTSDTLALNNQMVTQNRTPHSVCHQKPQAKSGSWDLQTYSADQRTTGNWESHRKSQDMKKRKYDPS
Type of test: functional, biochemical.

Test [5] is described as follows: rise of 2N DNA cells, HeLa – IC50, dose response (AID 1117349). In kind it is functional, cell-based.
Test [6] can be described thus: rise of 4N DNA cells, HeLa – IC50, dose response (AID 1117351). Type of test: functional, cell-based.
The next test has as its target Estrogen receptor beta (Homo sapiens, UniProt Q92731). Briefly: blockers of SRC-3 recruitment to ERβ – biochemical, ELISA, streptavidin-HRP readout, orthogonal assay, confirmation (AID 1060). Background: In an ELISA, binding on a coated surface is turned into a signal by an enzyme label.
The target in test [7] is T3, Carboxy-terminal domain RNA polymerase II polypeptide A small phosphatase 1 (Homo sapiens, UniProt Q9GZU7).
T3 sequence (Q9GZU7 whole entry): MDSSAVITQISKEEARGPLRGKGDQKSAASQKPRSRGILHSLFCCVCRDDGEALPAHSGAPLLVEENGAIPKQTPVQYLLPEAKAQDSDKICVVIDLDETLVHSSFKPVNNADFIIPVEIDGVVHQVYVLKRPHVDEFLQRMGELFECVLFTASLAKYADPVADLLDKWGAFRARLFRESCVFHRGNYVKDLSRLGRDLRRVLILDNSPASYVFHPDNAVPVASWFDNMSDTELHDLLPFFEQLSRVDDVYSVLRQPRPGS
Briefly: CTDSP1 inhibitors, concentration-response, biochemical, absorbance readout, ultra-high-throughput screen actives (AID 540297). Type of test: functional.

For test [8], the target named is DNA (cytosine-5)-methyltransferase 1 (Homo sapiens, UniProt P26358). Briefly: inhibition of DNA methylation by DNMT1 – biochemical, fluorescent molecular beacon, confirmation (AID 602386). In kind it is functional.
In test [9] the target is 26S proteasome non-ATPase regulatory subunit 14 (Homo sapiens, UniProt O00487). Briefly: inhibition of proteasome subunit RPN11 – biochemical, fluorescence polarization, uHTS hits, confirmation (AID 602368). In kind it is functional.
Test [10] deals with 72 kDa type IV collagenase (Homo sapiens, UniProt P08253). Briefly: Dose Response validation of uHTS RPN11 inhibitor hits using a MMP-2 Fluorescence assay. In kind it is functional.
A further test deals with Prothrombin (Bos taurus, UniProt P00735). Briefly: thrombin protease inhibitors – biochemical, fluorescence polarization, uHTS hits, dose response (AID 602369). In kind it is functional. A general note: Polarisation of emitted light reports the rotation of a fluorescent probe.
The target in a further test is T4, Cysteine protease ATG4B (Homo sapiens, UniProt Q9Y4P1).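 Further: Fluorescence-based dose-response confirmation assay measuring inhibition of ATG4B activity.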
T4 sequence (Q9Y4P1 whole entry): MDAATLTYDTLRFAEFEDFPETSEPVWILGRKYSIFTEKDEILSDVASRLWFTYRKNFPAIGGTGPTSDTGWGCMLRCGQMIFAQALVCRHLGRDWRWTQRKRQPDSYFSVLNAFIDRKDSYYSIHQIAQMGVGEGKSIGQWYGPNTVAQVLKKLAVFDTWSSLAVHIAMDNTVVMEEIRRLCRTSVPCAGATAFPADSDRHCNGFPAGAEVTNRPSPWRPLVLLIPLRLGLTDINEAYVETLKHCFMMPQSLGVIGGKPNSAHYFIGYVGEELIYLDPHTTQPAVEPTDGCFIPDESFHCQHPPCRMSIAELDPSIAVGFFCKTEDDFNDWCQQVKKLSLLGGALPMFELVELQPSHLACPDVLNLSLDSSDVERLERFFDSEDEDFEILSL
In kind it is functional.

In another test the target is Phospholipase A2 (Homo sapiens, UniProt P04054). Type of test: functional.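 Further: confirmatory dose-response counterscreen on phospholipase A2, testing hits that came from an ultra-high-throughput screen for ATG4B inhibitors.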
Test [11] deals with T5, High affinity choline transporter 1 (Homo sapiens, UniProt Q9GZV3).
T5 sequence (Q9GZV3 whole entry): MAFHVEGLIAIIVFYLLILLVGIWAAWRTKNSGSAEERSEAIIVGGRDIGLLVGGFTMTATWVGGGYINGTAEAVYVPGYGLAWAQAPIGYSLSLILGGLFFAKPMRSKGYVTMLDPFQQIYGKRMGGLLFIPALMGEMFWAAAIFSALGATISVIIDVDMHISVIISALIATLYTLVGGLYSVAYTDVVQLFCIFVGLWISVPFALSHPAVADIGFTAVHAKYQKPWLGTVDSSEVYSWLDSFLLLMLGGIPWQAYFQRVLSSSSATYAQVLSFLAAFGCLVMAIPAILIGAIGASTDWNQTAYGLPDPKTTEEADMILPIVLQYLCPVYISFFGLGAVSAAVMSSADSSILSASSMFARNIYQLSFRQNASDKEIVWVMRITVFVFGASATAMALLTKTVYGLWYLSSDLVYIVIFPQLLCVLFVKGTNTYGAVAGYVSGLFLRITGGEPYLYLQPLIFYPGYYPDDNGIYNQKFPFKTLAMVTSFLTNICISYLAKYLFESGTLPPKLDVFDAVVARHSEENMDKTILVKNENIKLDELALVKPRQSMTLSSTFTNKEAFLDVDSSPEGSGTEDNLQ
Briefly: human choline transporter blockers, potency – cell-based, 5-point CRC, membrane potential dye, dose response (AID 504840). Type of test: functional.

In test [12] the target is T5, High affinity choline transporter 1. Briefly: human choline transporter blockers, potency – cell-based, 10-point CRC, membrane potential dye, dose response (AID 588401).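 Further: membrane potential dye fluorescence of choline-evoked depolarization via CHT.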 In kind it is functional.
Test [13] can be described thus: viability of PTEN-deleted HCT116 cells – cell-based, HCT116 PTEN knockout, dose response (AID 1047).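 Further: HCT116 colon tumor cells with PTEN knocked out; cells exposed to compound for 60 hours before readout; potency for loss of cell viability measured by luminescence.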 Type of test: functional.
Test [14] can be described thus: viability of HCT116 lacking mutant beta-catenin – cell-based, human colon tumor, dose response (AID 1045).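 Further: HCT116 colon tumor cells with beta catenin knocked out; cells exposed to compound for 60 hours.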 In kind it is functional.
The nature of test [15]: reduction of Shn3 3'UTR-driven luciferase in osteoblasts – cell-based, Clone20 osteoblasts, firefly luciferase, cherry-picked, dose response (AID 624132).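 Further: firefly luciferase luminescence from reporter carrying the Shn3 3'UTR in osteoblasts.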 Type of test: functional.
Test [16] in a line: loss of viability in HepG2 cells – cell-based, CellTiter-Glo, cherry-picked, cytotoxicity control for Shn3 inhibitor project, dose response (AID 624134). In kind it is functional.
Test [17] in a line: non-specific 3'UTR reporter inhibition in Clone20-Shn3RL – cell-based, Renilla luciferase, cherry-picked, counter-screen for Shn3 inhibitor project, dose response (AID 624133). Type of test: functional.
Test [18] concerns the target T6, Fatty acid synthase (Homo sapiens, UniProt P49327). Briefly: inhibition of human FAS-TE enzyme activity – biochemical, endpoint fluorescence intensity, uHTS hits, dose response (AID 624327).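 Further: fluorescence from hydrolysis of an O-methyl fluorescein acyl ester substrate by the enzyme.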 In kind it is functional.
In test [19] the target is T6, Fatty acid synthase. Briefly: inhibition of human FAS-TE enzyme activity – biochemical, kinetic fluorescence intensity, dose response (AID 624326).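 Further: rate of fluorescence rise from hydrolysis of a fluorogenic O-methyl fluorescein ester substrate.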 In kind it is functional.
A short description of test [20]: mammalian cell viability loss – Alamar Blue, dry powder, cytotoxicity control for antifungal single agent project, dose response (AID 602188). In kind it is functional, cell-based.

Each structure is given as a SMILES string. The source made the active and inactive calls. Where only a bound is given, the exact number is not on record here.

In general, AC50 refers to the concentration at which the activity in the assay is half-maximal.

Chain of Phospholipase A2 (P04054 whole entry): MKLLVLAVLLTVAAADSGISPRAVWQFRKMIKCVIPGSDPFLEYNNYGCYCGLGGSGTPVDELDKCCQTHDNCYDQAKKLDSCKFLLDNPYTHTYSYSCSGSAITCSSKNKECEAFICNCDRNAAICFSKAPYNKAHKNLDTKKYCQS
Chain of 26S proteasome non-ATPase regulatory subunit 14 (O00487 whole entry): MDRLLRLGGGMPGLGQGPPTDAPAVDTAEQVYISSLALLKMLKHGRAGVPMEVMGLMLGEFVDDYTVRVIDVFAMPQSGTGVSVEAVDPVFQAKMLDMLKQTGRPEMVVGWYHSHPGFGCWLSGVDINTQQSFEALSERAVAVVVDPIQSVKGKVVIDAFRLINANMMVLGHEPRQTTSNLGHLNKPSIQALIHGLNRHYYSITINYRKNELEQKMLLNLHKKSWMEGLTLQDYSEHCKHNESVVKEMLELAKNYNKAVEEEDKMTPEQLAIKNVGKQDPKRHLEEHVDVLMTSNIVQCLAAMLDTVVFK
Chain of 72 kDa type IV collagenase (P08253 whole entry): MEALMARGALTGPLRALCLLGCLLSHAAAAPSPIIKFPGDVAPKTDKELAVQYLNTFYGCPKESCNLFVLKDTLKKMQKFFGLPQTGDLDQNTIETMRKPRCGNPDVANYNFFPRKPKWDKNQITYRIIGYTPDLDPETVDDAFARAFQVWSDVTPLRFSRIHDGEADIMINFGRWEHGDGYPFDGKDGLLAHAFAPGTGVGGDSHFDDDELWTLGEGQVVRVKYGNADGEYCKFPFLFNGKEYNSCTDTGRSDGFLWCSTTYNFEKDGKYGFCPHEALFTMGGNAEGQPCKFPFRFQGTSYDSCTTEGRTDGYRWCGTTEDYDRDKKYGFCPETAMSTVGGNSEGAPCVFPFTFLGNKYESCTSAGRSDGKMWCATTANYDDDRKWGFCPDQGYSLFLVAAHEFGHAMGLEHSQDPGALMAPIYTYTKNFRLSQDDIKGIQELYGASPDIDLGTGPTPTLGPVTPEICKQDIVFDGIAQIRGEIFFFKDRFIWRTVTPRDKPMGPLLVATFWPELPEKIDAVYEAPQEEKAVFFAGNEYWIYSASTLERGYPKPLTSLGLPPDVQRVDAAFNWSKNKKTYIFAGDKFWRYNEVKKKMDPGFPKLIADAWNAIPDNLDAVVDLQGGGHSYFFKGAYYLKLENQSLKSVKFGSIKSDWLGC
T6 sequence (P49327 whole entry): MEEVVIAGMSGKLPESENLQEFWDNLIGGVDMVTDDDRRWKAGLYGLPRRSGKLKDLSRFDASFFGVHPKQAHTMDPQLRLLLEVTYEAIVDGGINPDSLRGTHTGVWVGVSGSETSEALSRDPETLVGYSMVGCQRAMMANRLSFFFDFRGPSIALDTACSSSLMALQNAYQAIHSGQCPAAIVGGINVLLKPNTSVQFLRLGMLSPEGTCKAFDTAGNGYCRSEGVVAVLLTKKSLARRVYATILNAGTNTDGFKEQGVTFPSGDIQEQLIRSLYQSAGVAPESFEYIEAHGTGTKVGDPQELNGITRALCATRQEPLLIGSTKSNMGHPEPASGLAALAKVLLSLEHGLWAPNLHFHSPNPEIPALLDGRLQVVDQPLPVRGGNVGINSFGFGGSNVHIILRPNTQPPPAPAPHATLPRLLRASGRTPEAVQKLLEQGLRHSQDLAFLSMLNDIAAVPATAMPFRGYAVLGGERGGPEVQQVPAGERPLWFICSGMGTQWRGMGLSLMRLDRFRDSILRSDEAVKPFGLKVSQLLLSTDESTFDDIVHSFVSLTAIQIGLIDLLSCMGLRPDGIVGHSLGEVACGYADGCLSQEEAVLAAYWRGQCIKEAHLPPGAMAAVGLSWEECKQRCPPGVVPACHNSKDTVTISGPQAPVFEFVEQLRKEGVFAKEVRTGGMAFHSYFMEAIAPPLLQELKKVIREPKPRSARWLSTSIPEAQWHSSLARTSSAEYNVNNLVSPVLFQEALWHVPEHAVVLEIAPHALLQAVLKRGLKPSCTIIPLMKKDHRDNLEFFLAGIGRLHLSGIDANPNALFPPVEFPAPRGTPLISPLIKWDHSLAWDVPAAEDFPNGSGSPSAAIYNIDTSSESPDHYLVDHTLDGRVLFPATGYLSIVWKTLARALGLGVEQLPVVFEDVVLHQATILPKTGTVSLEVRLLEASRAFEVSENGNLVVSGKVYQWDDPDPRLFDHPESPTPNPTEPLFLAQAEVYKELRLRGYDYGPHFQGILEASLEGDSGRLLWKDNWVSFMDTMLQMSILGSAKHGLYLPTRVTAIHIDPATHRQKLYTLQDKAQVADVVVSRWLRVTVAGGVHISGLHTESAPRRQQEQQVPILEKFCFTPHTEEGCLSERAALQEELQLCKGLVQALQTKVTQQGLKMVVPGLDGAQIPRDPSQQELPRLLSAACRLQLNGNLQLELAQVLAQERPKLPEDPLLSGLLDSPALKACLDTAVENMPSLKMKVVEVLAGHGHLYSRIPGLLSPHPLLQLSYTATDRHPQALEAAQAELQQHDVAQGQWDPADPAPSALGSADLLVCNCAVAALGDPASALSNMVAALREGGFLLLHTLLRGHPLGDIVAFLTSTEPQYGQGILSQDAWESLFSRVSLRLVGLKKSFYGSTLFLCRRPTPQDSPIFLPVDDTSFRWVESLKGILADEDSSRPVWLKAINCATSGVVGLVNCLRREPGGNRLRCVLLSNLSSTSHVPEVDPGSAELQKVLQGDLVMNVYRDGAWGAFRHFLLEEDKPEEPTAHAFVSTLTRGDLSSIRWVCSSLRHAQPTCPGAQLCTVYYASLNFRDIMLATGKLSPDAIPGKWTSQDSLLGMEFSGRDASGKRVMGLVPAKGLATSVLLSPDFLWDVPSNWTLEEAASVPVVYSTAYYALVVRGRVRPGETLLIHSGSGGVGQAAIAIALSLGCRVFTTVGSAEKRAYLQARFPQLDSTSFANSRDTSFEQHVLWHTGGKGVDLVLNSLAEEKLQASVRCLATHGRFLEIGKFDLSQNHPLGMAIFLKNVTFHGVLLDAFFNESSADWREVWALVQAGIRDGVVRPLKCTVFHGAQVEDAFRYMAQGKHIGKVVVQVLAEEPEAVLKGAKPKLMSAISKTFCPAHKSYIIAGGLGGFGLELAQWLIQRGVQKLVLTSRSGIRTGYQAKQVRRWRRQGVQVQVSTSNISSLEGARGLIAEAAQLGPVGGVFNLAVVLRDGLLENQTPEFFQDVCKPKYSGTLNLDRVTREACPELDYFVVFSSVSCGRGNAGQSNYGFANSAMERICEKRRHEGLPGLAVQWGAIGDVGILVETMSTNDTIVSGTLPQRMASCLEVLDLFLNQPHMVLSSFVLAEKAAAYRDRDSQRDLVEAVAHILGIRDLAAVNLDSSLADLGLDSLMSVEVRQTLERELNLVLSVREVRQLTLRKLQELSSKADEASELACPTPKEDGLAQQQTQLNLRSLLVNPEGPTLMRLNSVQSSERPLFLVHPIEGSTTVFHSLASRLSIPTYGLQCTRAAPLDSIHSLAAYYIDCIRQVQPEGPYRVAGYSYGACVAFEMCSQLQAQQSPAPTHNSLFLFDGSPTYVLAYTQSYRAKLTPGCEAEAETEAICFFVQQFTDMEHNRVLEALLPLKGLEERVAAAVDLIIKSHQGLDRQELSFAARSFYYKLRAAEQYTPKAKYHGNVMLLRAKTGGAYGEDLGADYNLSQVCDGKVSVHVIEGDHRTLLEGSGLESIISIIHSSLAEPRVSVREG
Chain of Protein Wnt-3a (P27467 whole entry): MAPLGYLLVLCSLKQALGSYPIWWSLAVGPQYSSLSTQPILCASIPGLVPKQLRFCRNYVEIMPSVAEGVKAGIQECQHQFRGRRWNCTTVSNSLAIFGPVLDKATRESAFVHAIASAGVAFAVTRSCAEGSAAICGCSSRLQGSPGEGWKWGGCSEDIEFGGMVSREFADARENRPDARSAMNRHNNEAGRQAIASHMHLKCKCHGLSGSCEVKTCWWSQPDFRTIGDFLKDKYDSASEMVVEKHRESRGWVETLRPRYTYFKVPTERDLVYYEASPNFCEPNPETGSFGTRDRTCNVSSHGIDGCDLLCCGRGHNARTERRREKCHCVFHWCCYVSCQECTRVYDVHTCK
Chain of Estrogen receptor beta (Q92731 whole entry, the tested form may be a part): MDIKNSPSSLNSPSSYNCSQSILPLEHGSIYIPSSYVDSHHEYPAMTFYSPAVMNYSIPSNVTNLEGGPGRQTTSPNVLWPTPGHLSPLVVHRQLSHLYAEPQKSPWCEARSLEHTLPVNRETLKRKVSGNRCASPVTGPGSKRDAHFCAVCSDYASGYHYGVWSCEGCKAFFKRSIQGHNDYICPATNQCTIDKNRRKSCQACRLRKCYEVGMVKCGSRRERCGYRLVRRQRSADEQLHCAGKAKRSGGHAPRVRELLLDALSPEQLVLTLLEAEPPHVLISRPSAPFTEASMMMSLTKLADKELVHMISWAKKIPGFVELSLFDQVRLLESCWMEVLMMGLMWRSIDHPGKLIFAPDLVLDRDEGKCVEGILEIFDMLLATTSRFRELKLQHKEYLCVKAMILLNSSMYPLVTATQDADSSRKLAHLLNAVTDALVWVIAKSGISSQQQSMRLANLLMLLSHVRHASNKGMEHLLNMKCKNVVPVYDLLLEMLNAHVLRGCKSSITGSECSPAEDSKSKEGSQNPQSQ

Take `CC(=O)[C@H]1[C@@H]2C(=O)N(c3cccc(Cl)c3)C(=O)[C@@H]2[C@H]2c3ccccc3C=CN21`: in [1], the AC50 was 122 µM (active).

As for `O=C(N[C@@H]1C/C=C\C[C@H](CC(=O)N(CCO)Cc2ccccc2)C(=O)N[C@@H](Cc2c[nH]c3ccccc23)COC1=O)OCC1c2ccccc2-c2ccccc21`, the IC50 on Protein Wnt-3a is 8.54 µM (active).

On to `O=C(O)c1coc(-c2cc3ccccc3s2)n1`, for which the EC50 in test [2] is > 100 µM (inactive).

With `CCN(CC)CCNc1ccc(CO)c2sc3ccccc3c(=O)c12` [HYCANTHONE], the results for the concentration at half-maximal activity (AC50) in test [3] and in test [4] were 6.95 µM (active) and 9.33 µM (active), respectively. Moreover, the IC50 in [5] was 5.68 µM (inactive); in test [6], > 10 µM (inactive).

Turning to `Cc1ccc(C(=O)O)cc1-c1ccc(/C=C2/NC(=O)N(c3ccccc3)C2=O)o1`, the IC50 against Estrogen receptor beta is > 50 µM (not active); in test [7] it was 4.1 µM (active); in test [8] it was 11 µM (active); in test [9], 16.3 µM (active); in test [10], 29.3 µM (active); on Prothrombin, 33.9 µM (active).

Turning to `Cc1c(Cl)c([N+](=O)[O-])nn1Cc1ccc(C(=O)Nc2ccc(Cl)cn2)o1`, the figures for the IC50 on Cysteine protease ATG4B and on Phospholipase A2 were 22.5 µM (inactive) and 11.1 µM (active), respectively.

Take `CCCC(=O)NC(=S)Nc1cccc(NC(=O)c2ccccc2Cl)c1`: the IC50 is 10.3 µM (active) in [11] and 6.96 µM (active) in test [12].

Consider `CCCCn1c(CN2CCN(c3ccccc3)CC2)nc2c1c(=O)n(C)c(=O)n2C`, for which the EC50 in test [13] was 38.9 µM (active); in [14], 21.9 µM (active). For the same compound, the IC50 was 4.27 µM (active) in test [11], 1.96 µM (active) in [12], 15.3 µM (active) at Fatty acid synthase [18] and 21.5 µM (inactive) at Fatty acid synthase [19]. Also, the concentration at half-maximal activity (AC50) in test [15] was 2.05 µM (active); in test [16], 6.34 µM (active); in [17] it was 1.27 µM (active).

Turning to `COc1ccccc1CNC(=O)c1ccccc1OCc1ccc(F)cc1`, the IC50 on Cysteine protease ATG4B was 43.6 µM (inactive); on Phospholipase A2, 49.5 µM (inactive).

Take `CCC(C)Sc1ccc([C@@H]2[C@H]3C(=O)N(CC)C(=O)[C@H]3[C@]3(C(=O)OC)CCCCN23)cc1` (some centres not stated): the values for the IC50 (in [9]; in test [10]; at Prothrombin) were 69 µM (active), > 100 µM (inactive) and 47.8 µM (active), respectively.

`Oc1c(C(c2ccc(Cl)cc2)N2CCCC2)ccc2cccnc12` (configuration not stated): in test [20], the half-maximal activity concentration (AC50) was 1.71 µM (active).
